Test results: US20240327493A1 (GEORGE MASON UNIVERSITY, priority 2023, published 2024)
“Also recorded” adds a separate entry of the source.

What was measured:
[1] = human serum diluted 1:4 in RPMI, ESI-MS, 0, 6, 24, 48 hours
Description: Angiotensin I was spiked in and used for normalization.
Human serum was diluted 1:4 in Gibco RPMI 1640 media (ThermoFisher Scientific, Waltham, MA, USA, Cat. No. 11-875-093) for a total of 1 mL and incubated at 37° C. for 15 minutes prior to time course. Next, 1 μL of the peptide stock was added to warmed serum for a final concentration of […] in the master mix. The rest of the time course was performed at room temperature. For each time point, aliquots of 100 μL were removed from the master mix and added to 200 μL of 3% trifluoroacetic acid. Samples were incubated on ice for 15 minutes before centrifugation at 16,000×g for 2.5 minutes. Supernatants were transferred to a clean tube and prepared for desalting via C18 column by adding 100 μL of sample buffer (20% acetonitrile, 2% trifluoroacetic acid) to supernatants before storage at—20° C. overnight. Samples were then processed through Pierce C18 spin columns (ThermoFisher Scientific, Cat. No. 89870) according to the manufacturer's instructions. […]
For ESI-MS analysis, serum stability samples were run on an Orbitrap Exploris 480 (ThermoFisher Scientific). […] ThermoFisher's Xcalibur 4.0 Data System was used for peptide quantification. […] The samples were batch reprocessed for quantification via peak area. Peptide abundances were normalized based on Angiotensin I abundance and quantified relative to initial abundance.

[2] = test system: human PBMCs co-cultured with OVCAR8 cells; test: Co-culture of OVCAR8 cells and stimulated human PBMCs, 1:10 OVCAR8:PBMC ratio; format: cell-based; settings: for Immunosuppressive effect (reduction in TNFα/cytokines) compared with controls rPD-L1 and MN_Null: 1:10 OVCAR8:PBMC co-culture, FIG. 10D; for TNFα levels / IL-2 levels: 1:10 OVCAR8:PBMC, 24 hours, vs untreated co-culture control; for TNFα levels: ELISA, FIG. 10C; for IL-2 levels: FIG. 10B
Description: For this model, PBMCs and cancer cells were both stimulated prior to co-culture to promote expression of PD-1 and PD-L1, respectively.
OVCAR8 cells, generously provided by the Gottesman Lab (National Institutes of Health, Bethesda, MD, USA), and MDA-MB-231 cells (American Type Culture Collection, Rockville, MD, USA) were cultured in Gibco RPMI 1640 media (ThermoFisher Scientific, Cat. No. 11-875-093) supplemented with 10% Gibco fetal bovine serum (ThermoFisher Scientific, Cat. No. 10437028), and 1% penicillin/streptomycin (10,000 U/mL pen, 10 mg/mL strcp) from MilliporeSigma (Burlington, MA, USA, Cat. No. P4333). Cells were cultured at 37° C. and 5% CO2. Passage number was kept below 3 for co-culture assay. Human peripheral blood mononuclear cells were purchased frozen from […] PBMCs were thawed according to manufacturer's instructions one day before co-culture and cultured in the same media and conditions as cancer cell lines.
The next day, cells were stimulated with 100 ng/mL IFNγ and two vials of human PBMCs were thawed. On Day 3, concentrations of PBMCs and OVCAR8 cells (harvested from a control well) were measured using the QuadCount Automated Cell Counter. The concentration of PBMCs required for a 1:10 OVCAR8:PBMC ratio was calculated from the OVCAR8 concentration. PBMCs were plated on a separate 24-well plate (1 mL/well) and stimulated with 5 μg/mL of anti-CD3 and 5 μg/mL of anti-CD28 for 30 minutes before drug treatment. […] After 30 minutes, media was removed from OVCAR8 wells without treatment, and replaced with 1 mL of treated PBMCs. After 24 hours, the supernatants were collected from each well, and centrifuged at 10,000×g for 5 minutes to remove any remaining cells.
Briefly, samples from co-culture experiments with excess OVCAR8 ratios were diluted 1:10 in assay buffer, and samples from co-culture experiments with excess PBMC ratios were diluted 1:5 in assay buffer. Next, 10 μL of the diluted samples were mixed with 10 μL of an IL-2 antibody-oligonucleotide conjugate mixture and added to a 96-well working plate. Samples with excess OVCAR8 ratios were allowed to incubate overnight at 4° C. Samples with excess PBMCs were allowed to incubate for 1 hour at room temperature. Next, 80 μL of qPCR reaction mixture containing master mix and DNA ligase was added to each well. The plate was centrifuged at 2,500×g for 2 minutes. Samples were then added in triplicate (20 μL/well) to a 96-well PCR plate (ThermoFisher Scientific). PCR was run according to manufacturer's instructions using the QuantStudio 7 Pro Real-Time PCR System equipped with a 96-well, 0.2 mL block from ThermoFisher Scientific.
Remaining samples from experiments with excess PBMC ratios were analyzed using TNFα (Cat. No. 430204) ELISA MAX Deluxe Sets (BioLegend, San Diego, CA, USA) according to manufacturer's instructions. Briefly, 96-well Nunc™ MaxiSorp™ ELISA Plates (BioLegend, Cat. No. 423501) were coated with capture antibodies for TNFα and incubated overnight at 4° C. The next day, the plate was washed 4× with 1×PBS+0.05% Tween-20 (PBS-T). To block non-specific binding, 200 μL of assay dilutant buffer was added to each well and the plate was incubated at room temperature for 1 hour on a shaker. The plate was washed as before, and 100 μL of the samples or standards were added to each well in triplicate and incubated at room temperature for 2 hours on a shaker. The plate was washed 4× and 100 μL of detection antibody for TNFα was added to each well, and the plate was incubated at room temperature for 1 hour on a shaker. The plate was washed 4× and 100 μL of Avidin-HRP was added to each well, and the plate was incubated at room temperature for 30 minutes on a shaker.

For `CC[C@H](C)[C@@H]1NC(=O)[C@H](CCSC)NC(=O)[C@H](C)NC(=O)[C@H](CCCNC(=N)N)NC(=O)[C@@H](N)CSSC[C@@H](C(=O)O)NC(=O)[C@H]([C@@H](C)CC)NC(=O)[C@H](CCCNC(=N)N)N(C)C(=O)[C@H](CCCCN)NC(=O)[C@H](Cc2ccc(O)cc2)NC(=O)[C@H](CC(=O)O)NC(=O)[C@H](C)NC(=O)CNC(=O)CNC(=O)[C@H](Cc2ccc(O)cc2)NC(=O)[C@H](CO)NC1=O` [SEQ ID NO. 5, CRAMISYGGADYKXIC], the Degradation in serum [1] was “not significantly degraded at 48 hours”, the “Immunosuppressive effect (reduction in TNFα/cytokines) compared with controls rPD-L1 and MN_Null” value ([2]; listed as MN 1.4) was “less potent than recombinant PD-L1” and the “Immunosuppressive effect (reduction in TNFα/cytokines) compared with controls rPD-L1 and MN_Null” value ([2]; listed as MN1.4) was “not a significant difference in cytokine levels between the MN1.4 and rPD-L1 treatment groups; also recorded: recapitulated the biological effects of full-length PD-L1; also recorded: the same reduction in TNFα as rPD-L1”. The TNFα levels ([2]; listed as MN 1.4) was “reduced in a dose-dependent manner”, the TNFα levels ([2]; listed as MN1.4) was “same pattern of T cell suppression was observed; also recorded: significantly decreased; also recorded: shown to decrease IL-2 and TNFα secretion; also recorded: A reduction in this cytokine was also observed” and the IL-2 levels ([2]; listed as MN 1.4) was “reduced in a dose-dependent manner”. For the same molecule, the IL-2 levels ([2]; listed as MN1.4) was “same pattern of T cell suppression was observed; also recorded: significantly decreased; also recorded: shown to decrease IL-2 and TNFα secretion; also recorded: A dose-dependent reduction in IL-2 was observed”.
